System: MV-4-11 cells
Experiment: MV-4-11 cell proliferation assay (ATPlite)
Conditions: 3 days, read-out: Cell based (IC50 μM) MV-4-11 (Flt-3)
Method: Compounds are assessed in a variety of cell based assays. For example BCR-FMS/BaF3, BCR-KIT/BaF3, M-NFS-60, M-07e, and BAC1.2F5 cell proliferation assays are used to assess inhibitory activity of Fms or Kit and MV-4-11 cell proliferation assay is used to assess inhibitory activity in Flt-3. Reagent and assay conditions are as follows: • BCR-FMS/BaF3 and BCR-KIT/BaF3 cells: • Maintained in RPMI containing 10% FBS, 1% PenStrep, 1% NEAA, and 1% L-Glutamine, supplemented with 1 mg/mL G418 and 5% WEHI-CM (or recombinant murine IL-3). • Confluent cells are split 1:50 to 1:100 every 3-4 days. • M-NFS-60 cells (ATCC #CRL-1838): • Maintained in RPMI containing 10% FBS, 1% Hepes, 1% NaPyruvate, and 0.45% Glucose, supplemented with 62 ng/mL murine M-CSF. • Confluent cells are split 1:20 every 3-4 days. • M-07e cells (DSMZ #ACC 104): • Maintained in IMDM containing 10% FBS, supplemented with either 200 ng/mL human SCF or […] SCF (R&D Systems 255-SC). • Confluent cells are split 1:5 to 1:10 every 3-4 days. • BAC1.2F5 cells: • Maintained in Alpha-MEM containing 10% Newborn Calf Serum (Invitrogen #26010-074) supplemented with 36 ng/mL murine M-CSF. • Confluent cells are split 1:4 every 3-4 days. • MV-4-11 cells: • Maintained in Iscove's Modified Dulbecco's Medium containing 10% FBS. • Confluent cells are split 1:4 every 3-4 days. On day 1, cells are counted, then centrifuged in a conical tube for 5 minutes at 1000 rpm. The supernatant is removed and cells are re-suspended as follows: • BCR-FMS/BaF3 and BCR-KIT/BaF3: resuspend in growth media+1 mg/mL G418 (without WEHI/IL-3) to 2×10^5 cells/mL. • M-NFS-60: resuspend in growth media +62 ng/mL murine M-CSF to 5×10^5 cells/mL. • M-07e: resuspend in growth media +200 ng/mL human SCF to 5×10^5 cells/mL. • BAC1.2F5: resuspend in growth media +36 ng/mL murine M-CSF to 1.4×10^5 cells/mL. • MV-4-11: resuspend in growth media +10% FBS to 5×10^5 cells/mL. The cells are plated (50 μL) in each well of a 96-well dish (Corning 3610) and incubated at 37° C. in 5% CO2 overnight, cells plated to a final concentration of cells as follows: • BCR-FMS/BaF3 and BCR-KIT/BaF3: 10,000 cells per well. • M-NFS-60: 25,000 cells per well. • M-07e: 25,000 cells per well. • BAC1.2F5: 7,000 cells per well. • MV-4-11: 25,000 cells per well. On day 2, compound at a maximum concentration of 5 mM is serially diluted 1:3 for a total of 8 point titration with DMSO as a control. A 1 μL aliquot of each dilution point is added to 249 μL growth media and 50 μL is added to a well containing cells, providing 10 μM compound for the maximum concentration point. The cells are incubated for 3 days at 37° C. in 5% CO2. On day 5, ATPlite 1 step Luminescence Assay System (Perkin Elmer #6016739) is brought to room temperature along with the cell cultures. ATPlite is added to each well as follows: • BCR-FMS/BaF3 and BCR-KIT/BaF3: 25 μL per well. • M-NFS-60: 25 μL per well. • M-07c: 40 μL per well. • BAC1.2F5: 50 μL per well. • MV-4-11: 40 μL per well. The cells are incubated at room temperature for 10 minutes, then luminescence is read on Safire reader. The measured luminescence correlates directly with cell number, such that the reading as a function of compound concentration is used to determine the IC50 value.

Clc1cnc2[nH]cc(Cc3ccc(NCc4ccc(Cl)nc4)nc3)c2c1 [Compound P-2003] gave an IC50 greater than 0.1 µM.

Same assay, conditions: Homo sapiens, MV4-11, 72 h, 3 days, read-out: Cell based (IC50 μM) MV-4-11 (Flt-3)

COc1ccc(CNc2ncc(Cc3c[nH]c4ncc(Cl)cc34)cn2)cn1 [Compound P-2038, [5-(5-Chloro-1H-pyrrolo[2,3-b]pyridin-3-ylmethyl)-pyrimidin-2-yl]-(6-methoxy-pyridin-3-ylmethyl)-amine] and COc1ccc(CNc2ncc(Cc3c[nH]c4ncc(C)cc34)cn2)cn1 [Compound P-2057, (6-Methoxy-pyridin-3-ylmethyl)-[5-(5-methyl-1H-pyrrolo[2,3-b]pyridin-3-ylmethyl)-pyrimidin-2-yl]-amine] cannot be ordered by IC50: less than 0.1 µM for the first, less than 0.1 µM for the second.

Going from Fc1nc(NCc2ccc(Cl)cn2)ccc1Cc1c[nH]c2ncccc12 [Compound P-2044, (5-Chloro-pyridin-2-ylmethyl)-[6-fluoro-5-(1H-pyrrolo[2,3-b]pyridin-3-ylmethyl)-pyridin-2-yl]-amine] to COc1ccnc2[nH]cc(Cc3ccc(NCc4ccc(Cl)cc4)nc3F)c12 [Compound P-2037, (4-Chloro-benzyl)-[6-fluoro-5-(4-methoxy-1H-pyrrolo[2,3-b]pyridin-3-ylmethyl)-pyridin-2-yl]-amine], the IC50 rises from less than 0.1 µM to greater than 0.1 µM. The first is the more potent here.

COc1cnc2[nH]cc(Cc3ccc(NCc4ccc(OC)nc4)nc3F)c2c1 [Compound P-2030, [6-Fluoro-5-(5-methoxy-1H-pyrrolo[2,3-b]pyridin-3-ylmethyl)-pyridin-2-yl]-(6-methoxy-pyridin-3-ylmethyl)-amine] and COc1ccc(CNc2ccc(Cc3c[nH]c4ncc(C)cc34)c(F)n2)cn1 [Compound P-2029, [6-Fluoro-5-(5-methyl-1H-pyrrolo[2,3-b]pyridin-3-ylmethyl)-pyridin-2-yl]-(6-methoxy-pyridin-3-ylmethyl)-amine] cannot be ordered by IC50: less than 0.1 µM for the first, less than 0.1 µM for the second.

Compared with COc1ncc(CNc2ccc(Cc3c[nH]c4ncc(Cl)cc34)c(F)n2)cc1F [Compound P-2165, [5-(5-Chloro-1H-pyrrolo[2,3-b]pyridin-3-ylmethyl)-6-fluoro-pyridin-2-yl]-(5-fluoro-6-methoxy-pyridin-3-ylmethyl)-amine], COc1cnc2[nH]cc(Cc3ccc(NCc4ccc(Cl)cc4)nc3F)c2c1 [Compound P-2032, (4-Chloro-benzyl)-[6-fluoro-5-(5-methoxy-1H-pyrrolo[2,3-b]pyridin-3-ylmethyl)-pyridin-2-yl]-amine] is lower in IC50: greater than 0.1 µM for the first, less than 0.1 µM for the second.

Going from COc1cnc2[nH]cc(Cc3ccc(NCc4ccccc4Cl)nc3F)c2c1 [Compound P-2034, (2-chloro-benzyl)-[6-fluoro-5-(5-methoxy-1H-pyrrolo[2,3-b]pyridin-3-ylmethyl)-pyridin-2-yl]-amine] to Cc1cnc2[nH]cc(Cc3ccc(NCc4ccc(C(F)(F)F)nc4)nc3F)c2c1 [Compound P-2031, [6-Fluoro-5-(5-methyl-1H-pyrrolo[2,3-b]pyridin-3-ylmethyl)-pyridin-2-yl]-(6-trifluoromethyl-pyridin-3-ylmethyl)-amine], the IC50 falls from greater than 0.1 µM to less than 0.1 µM. The second is the more potent here.

Source: patent US9096593B2, “Compounds and methods for kinase modulation, and indications therefor” (Plexxikon Inc., priority 2009, dated 2015)
